From US20030228402A1, “Compositions and methods for preservation of food” (priority 2002, published 2003)
Like-named read-outs stand apart in the source and are kept apart here.

How the values were obtained:
E. coli strain AW574 = assay: E. coli growth (O.D.) with single or combined terpenes; assay type: cell-based; settings: single terpene 2 μMol; 24 hours
Procedure: E. coli strain AW574 was grown in tryptone broth to an exponential growth phase (O.D. between 0.4 and 1.0 at 590 nm). One tenth of this growth was inoculated to 10 ml of tryptone broth followed by the addition of individual terpenes or as indicated on Table 8; then incubated for 24 hours at 35-37° C., and the O.D. determined in each tube. The concentration of terpenes was 1 or 2 μMol. Each treatment was repeated in triplicate. The results are expressed as percentage bacterial growth as compared to the control treatment.
E. coli strain AW574 was grown in tryptone broth to an exponential growth phase (O.D. between 0.4 and 1.0 at 590 nm).
One tenth of this growth was inoculated to 10 ml of tryptone broth followed by the addition of individual terpenes or as indicated on Table 18; then incubated for 24 hours at 35-37° C. and the O.D. determined in each tube.
The concentration of terpenes was 1 or 2 μMol. Each treatment was repeated in triplicate.
The results are expressed as percentage bacterial growth as compared to the control treatment.

[1] = tested on: E. coli strains AW574 or AW405; assay: Lysis of E. coli by terpenes (galactosidase activity, ONPG); assay type: cell-based
Excerpt: Lysis of the cell membrane was monitored by the determination of galactosidase activity. B-galactosidase is a well-characterized cytosolic enzyme in bacteria. This enzyme is inducible in the presence of isopropyl-1-thiogalactosidase (IPTG) and assayed calorimetrically with substrate o-nitro-phenyl-B-D-galactoside (ONPG). ONPG is cleaved to release o-nitrophenol which has a peak absorbance at 420 nm.
Since intact E. coli is impermeable to both ONPG and the enzyme, the cells have to be lysed prior to enzymatic assay. Therefore, the ability of terpenes to lyse E. coli can be measured with this enzymatic assay and compared to known lysing agents.
The procedure used was as follows: E. coli strains AW574 or AW405 were cultured overnight in 10 ml tryptone broth with […] at 35° C. Cells were allowed to grow after an absorbance equal to 0.9 was reached.
Cells were harvested, washed with phosphate buffer and resuspended to an absorbance equal to 0.5.
0.1 ml of the bacteria culture was added to 0.9 ml of buffer, warmed to 30° C., and then 80 μl of terpenes (85% terpenes and 15% polysorbate-80), 80 μl water (background), or 40 μl chloroform plus 40 μl 1% SDS in water (positive control) were added.
After the addition of the lysing agents the tubes were mixed for 10 seconds, and 0.2 ml of ONPG (4 mg/ml water) was added, then incubated for 5 minutes. The 5 enzyme activity was stopped with 0.5 ml of 1 M sodium carbonate. After being centrifuged for 3 minutes at 1,500×g, supernatant was transferred to cuvettes and read at 420 nm.
The relative degree of lysis caused by terpenes was calculated as follows: 100× (O.D. terpenes—O.D. water)/(O.D. chloroform—O.D. water).

[2] = Solution and suspension levels of terpenes in water
Excerpt: The terpene and water were blended in a household blender for 30 seconds.
Examples of these levels are as follows.

[3] = Break down of terpenes in the presence of oxygen / potency of solution; assay type: physicochemical; settings: 500 ppm solution
Excerpt: Terpenes will break down in the presence of oxygen. Citral, for example, is an aldehyde and will decay (oxygenate) over a period of days.

E. coli = settings: cited from earlier work
erythrocytes = assay type: cell-based; settings: 20 min
Procedure: These mixtures were incubated for 20 minutes.

Mycoplasma pneumoniae = assay: Killing of Mycoplasma pneumoniae, color change of SP4 medium; assay type: cell-based; settings: for killing effect (color change of first tube): three days after the 10-fold dilution
Procedure: This mixture was then used to make concentrations of 2500 ppm in sterile phosphate buffer saline (PBS) by blending the mixture in PBS for 40 seconds. […] PBS containing 25 ppm Tween® 80 or PBS alone was used to treat cells suspension as controls. […] After 40 hours of treatment, 10-fold serial dilution was performed to 10 (−10) by first taking 0.1 mL of the treated culture suspension was added into 0.9 mL of fresh SP4 (Whitcomb (1983); SP4 media is commercially available (Remel, Lenexa, Kans., USA)). All the tubes were then incubated at 37° C., and a color change of the medium was used for the indication of the cells that either were killed or survived from the treatment. Color change was from red to yellow because Mycoplasma pneumoniae produces acid during its growth. All the treatments were performed in duplicate.

[4] = 62.5, 125 and 250 ppm, 40 hours treatment

C=C(C)C1CC=C(C)C(=O)C1 (stereo not shown) [Carvone]
% growth (bacterial growth as compared to the control treatment) (E. coli strain AW574): 63.00% | Relative lysis % ([1]; 404 μM): 3.2% | Relative lysis % ([1]; 4,040 μM): 22% | Relative lysis % ([1]; 40,400 μM): 54% | Level (maximum level of terpene solubilized, solution level) ([2]; true solution in water without surfactant, high shear mixing): 500 ppm

CC(C)=CCCC(C)=CC=O [Citral, 3,7-dimethyl-2,6-octadien-1-al]
time in which the solution will lose half its potency [3]: 2-3 weeks | citral in growth media with bactericidal effect (E. coli): 0.08% | concentration that will lyse human erythrocytes (erythrocytes): approximately 1000 ppm

CC(C)=CCC/C(C)=C/CO [Geraniol]
% growth (bacterial growth as compared to the control treatment) (E. coli strain AW574): 54.00% | Relative lysis % ([1]; 3.63 μM): 2.4% | Relative lysis % ([1]; 36.3 μM): 4% | Relative lysis % ([1]; 363 μM): 34% | Relative lysis % ([1]; 3,630 μM): 98% | Relative lysis % ([1]; 36,300 μM): 96% | Level (maximum level of terpene solubilized, solution level) [2]: 500 ppm

CC(=O)/C=C/C1=C(C)CCCC1(C)C [b-ionone]
killing effect (color change of first tube) (Mycoplasma pneumoniae; [4]): killing effect | tubes of the 10-fold dilution series that changed color (Mycoplasma pneumoniae; 62.5 ppm, 6 days after the 10-fold dilution): only the first tube | killing of all cells (Mycoplasma pneumoniae; 125 and 250 ppm, 40 hours treatment, 6 days after the 10-fold dilution): may have completely killed all cells | % growth (bacterial growth as compared to the control treatment) (E. coli strain AW574): 84.00% | Relative lysis % ([1]; 0.0308 μM): 1.3% | Relative lysis % ([1]; 0.308 μM): 4.78% | Relative lysis % ([1]; 3.08 μM): 23% | Relative lysis % ([1]; 30.8 μM): 44% | Relative lysis % ([1]; 308 μM): 52% | Level (maximum level of terpene solubilized, solution level) [2]: 500 ppm

L-carvone
killing effect (color change of first tube) (Mycoplasma pneumoniae; [4]): no killing effects | tubes of the 10-fold dilution series that changed color (Mycoplasma pneumoniae; 62.5, 125 and 250 ppm, 6 days after the 10-fold dilution): second and third tube

Terpeniol
Level (maximum level of terpene solubilized, solution level) [2]: 500 ppm
